From patent US6875761B2 (Eisai Co., Ltd., priority 1997, dated 2005) come the findings set out here.

Structures can show the parent of a compound that is named as a salt.

The target of assay [1] is T1, serotonin 2 receptor (Rattus norvegicus, UniProt P14842).
T1 construct: To the receptor fraction of the cerebral cortex were added a test compound and 0.3 nM of [^3H] ketanserin; from tissue; host or cells: rat cerebral cortex membrane fraction
Put plainly: Binding test on [3H] ketanserin, cerebral cortex receptor fraction. Further details: species or system SD rats. The note with it: 0.3 nM [3H] ketanserin, 37° C. 15 min, read-out: 5HT2.

In assay [2] the target is T2, serotonin 1A receptor (Rattus norvegicus, UniProt P19327).
T2 construct: To the receptor fraction of the hippocampus were added a test compound and 0.5 nM of [^3H]; 8-hydroxy-dipropylaminotetralin; from tissue; host or cells: rat hippocampus membrane fraction
T2 sequence (P19327 1-422): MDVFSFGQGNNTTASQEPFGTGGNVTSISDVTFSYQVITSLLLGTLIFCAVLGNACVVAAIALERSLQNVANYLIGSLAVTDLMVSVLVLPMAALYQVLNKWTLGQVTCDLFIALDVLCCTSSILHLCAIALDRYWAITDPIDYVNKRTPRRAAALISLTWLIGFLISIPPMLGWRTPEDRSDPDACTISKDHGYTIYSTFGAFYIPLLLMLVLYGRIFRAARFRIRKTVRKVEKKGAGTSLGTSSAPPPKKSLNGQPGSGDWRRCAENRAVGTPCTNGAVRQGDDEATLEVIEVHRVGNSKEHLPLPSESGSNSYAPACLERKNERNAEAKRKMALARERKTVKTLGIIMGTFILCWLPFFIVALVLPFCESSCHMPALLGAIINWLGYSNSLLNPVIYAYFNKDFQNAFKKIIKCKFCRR
Nature of the assay: Binding test on [3H] 8-hydroxy-dipropylaminotetralin, hippocampus receptor fraction. Further details: species or system SD rats. The note with it: rat hippocampus receptor fraction, 0.5 nM [3H] 8-OH-DPAT, room temperature 30 min; read-out: 5HT1.

T1 sequence (P14842 whole entry): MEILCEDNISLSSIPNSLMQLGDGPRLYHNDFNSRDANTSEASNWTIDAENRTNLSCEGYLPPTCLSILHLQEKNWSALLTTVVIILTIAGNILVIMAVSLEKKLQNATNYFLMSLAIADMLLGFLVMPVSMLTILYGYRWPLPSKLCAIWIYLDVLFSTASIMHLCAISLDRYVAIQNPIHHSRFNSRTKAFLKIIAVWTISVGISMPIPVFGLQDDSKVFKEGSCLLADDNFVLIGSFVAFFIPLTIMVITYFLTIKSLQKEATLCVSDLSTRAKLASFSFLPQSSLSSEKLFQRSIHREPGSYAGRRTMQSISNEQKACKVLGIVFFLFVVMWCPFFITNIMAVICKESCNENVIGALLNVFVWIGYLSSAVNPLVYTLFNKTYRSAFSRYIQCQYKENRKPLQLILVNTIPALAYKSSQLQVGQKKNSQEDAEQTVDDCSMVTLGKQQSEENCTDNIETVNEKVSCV

In the case of `CCN1CCN(c2nc(-c3ccc(CCCO)cc3)cc3ccsc23)CC1` [Example 432, 7-(4-ethylpiperazin-1-yl)-5-[4-(3-hydroxypropyl)phenyl]thieno[2,3-c]pyridine hydrochloride], the Ki in assay [1] was 28.5 nM; in assay [2], 1.98 nM.
As to `CCN1CCN(c2nc(-c3ccc(CCCO)c(OC)c3)cc3ccsc23)CC1` [Example 433, 7-(4-ethylpiperazin-1-yl)-5-[4-(3-hydroxypropyl)-3-methoxyphenyl]thieno[2,3-c]-pyridine hydrochloride], the Ki in assay [1] was 3.53 nM; in assay [2] it was 20.6 nM.
The matching figures for `CCN1CCN(c2nc(-c3ccc(OCCCO)cc3)cc3ccsc23)CC1` [Example 434, 7-(4-ethylpiperazin-1-yl)-5-[4-(3-hydroxypropoxy)phenyl]thieno[2,3-c]pyridine dihydrochloride]: 60.5 nM and 64.9 nM.
The matching figures for `CCN1CCN(c2nc(-c3ccc(OC[C@@H](C)O)cc3)cc3ccsc23)CC1` [Example 435, 7-(4-ethylpiperazin-1-yl)-5-[4-(2-hydroxypropoxy)phenyl]thieno[2,3-c]pyridine dihydrochloride]: 1.14 nM and 61.2 nM.
In the case of `CCN1CCN(c2nc(-c3ccc(CC(C)O)cc3)cc3ccsc23)CC1` (stereo not drawn) [Example 436, 7-(4-ethylpiperazin-1-yl)-5-[4-(2-hydroxypropyl)phenyl]thieno[2,3-c]pyridine dihydrochloride], the Ki stood at 26 nM in assay [1] and 8.64 nM in assay [2].
Taken in the same sequence, the figures for `CCN1CCN(c2nc(-c3ccc(OCCO)c(Cl)c3)cc3ccsc23)CC1` [Example 437, 7-(4-ethylpiperazin-1-yl)-5-[3-chloro-4-(2-hydroxyethoxy)phenyl]thieno[2,3-c]pyridine] were 18.1 nM and 30.5 nM.
With `CCN1CCN(c2nc(-c3ccc(O[C@@H](C)CO)cc3)cc3ccsc23)CC1` [Example 438, 7-(4-ethylpiperazin-1-yl)-5-[4-(1-methyl-2-hydroxyethoxy)phenyl]thieno[2,3-c]pyridine dihydrochloride], the Ki in assay [1] came out at 18.8 nM; in assay [2] it was 62.9 nM.
The matching figures for `CCN1CCN(c2nc(-c3ccc(CCC(C)(C)O)cc3)cc3ccsc23)CC1` [Example 439, 7-(4-ethylpiperazin-1-yl)-5-[4-(3-hydroxy-3-methylbutyl)phenyl]thieno[2,3-c]pyridine dihydrochloride]: 6.03 nM and 44.2 nM.
Taken in the same sequence, the figures for `CCN1CCN(c2nc(-c3ccc(CCC(C)O)cc3)cc3ccsc23)CC1` (stereo not drawn) [Example 440, 7-(4-ethylpiperazin-1-yl)-5-[4-(3-hydroxybutyl)phenyl]thieno[2,3-c]pyridine dihydrochloride] were 0.72 nM and 21.8 nM.
Turning to `CCN1CCN(c2nc(-c3ccc(CC(C)CO)cc3)cc3ccsc23)CC1` (stereo not drawn) [Example 441, 7-(4-ethylpiperazin-1-yl)-5-[4-(3-hydroxy-2-methylpropyl)phenyl]thieno[2,3-c]pyridine dihydrochloride], the figures for the Ki in assay [1] and in assay [2] were 0.41 nM and 15.2 nM, respectively.
Turning to `CCN1CCN(c2nc(-c3ccc(CC(C)(C)CO)cc3)cc3ccsc23)CC1` [Example 442, 7-(4-ethylpiperazin-1-yl)-5-[4-(3-hydroxy-2,2-dimethylpropyl)phenyl]thieno[2,3-c]pyridine dihydrochloride], the Ki in assay [1] was 2.66 nM; in assay [2] it was 23.2 nM.
In the case of `CCN1CCN(c2nc(-c3ccc(C(C)(C)CCO)cc3)cc3ccsc23)CC1` [Example 443, 7-(4-ethylpiperazin-1-yl)-5-[4-(3-hydroxy-1,1-dimethylpropyl)phenyl]thieno[2,3-c]pyridine dihydrochloride], the results for the Ki in assay [1] and in assay [2] were 1.85 nM and 10.2 nM, respectively.
Regarding `CCN1CCN(c2nc(-c3ccc(SC[C@@H](C)O)cc3)cc3ccsc23)CC1` [Example 444, 7-(4-ethylpiperazin-1-yl)-5-[4-(2-hydroxypropylthio)phenyl]thieno[2,3-c]pyridine dihydrochloride], the Ki in assay [1] came out at 12 nM; in assay [2], 43.2 nM.
With `CCN1CCN(c2nc(-c3ccc(S(C)(=O)=O)cc3)cc3ccsc23)CC1` [Example 445, 7-(4-ethylpiperazin-1-yl)-5-(4-methanesulfonylphenyl)thieno)[2,3-c]pyridine dihydrochloride], the Ki in assay [1] amounted to 90.4 nM; in assay [2] it was 5.46 nM.
Consider `CCCC(O)c1ccc(-c2cc3ccsc3c(N3CCN(CC)CC3)n2)cc1` (stereo not drawn) [Example 446, 7-(4-ethylpiperazin-1-yl)-5-[4-(1-hydroxybutyl)phenyl]thieno[2,3-c]pyridine dihydrochloride], for which the Ki in assay [1] is 30 nM; in assay [2], 12.2 nM.
Take `CCNC(=O)c1ccc(-c2cc3ccsc3c(N3CCN(CC)CC3)n2)cc1` [Example 448, 7-(4-ethylpiperazin-1-yl)-5-[4-(N-ethylcarbamoyl)phenyl]thieno[2,3-c]pyridine dihydrochloride]: the figures for the Ki in assay [1] and in assay [2] were 346 nM and 22.6 nM, respectively.
Turning to `CCCNC(=O)c1ccc(-c2cc3ccsc3c(N3CCN(CC)CC3)n2)cc1` [Example 449, 7-(4-ethylpiperazin-1-yl)-5-[4-(N-propylcarbamoyl)phenyl]thieno[2,3-c]pyridine dihydrochloride], the Ki in assay [1] was determined as 43.8 nM; in assay [2] it was 24 nM.
For the compound `CCN1CCN(c2nc(-c3ccc(S(=O)(=O)CC)cc3)cc3ccsc23)CC1` [Example 450, 7-(4-ethylpiperazin-1-yl)-5-(4-ethanesulfonylphenyl)thieno[2,3-c]pyridine dihydrochloride], the Ki was 15.2 nM in assay [1] and 6.89 nM in assay [2].
The matching figures for `CCCS(=O)(=O)c1ccc(-c2cc3ccsc3c(N3CCN(CC)CC3)n2)cc1` [Example 451, 7-(4-ethylpiperazin-1-yl)-5-(4-propanesulfonylphenyl)thieno[2,3-c]pyridine dihydrochloride]: 37.9 nM and 7.72 nM.
Take `CCCCNC(=O)c1ccc(-c2cc3ccsc3c(N3CCN(CC)CC3)n2)cc1` [Example 452, 7-(4-ethylpiperazin-1-yl)-5-[4-(N-butylcarbamoyl)phenyl]thieno[2,3-c]pyridine dihydrochloride]: the Ki in assay [1] was found to be 7.04 nM; in assay [2] it was 19.6 nM.
In the case of `CCN1CCN(c2nc(-c3ccc(C(=O)NC4CCCC4)cc3)cc3ccsc23)CC1` [Example 453, 7-(4-ethylpiperazin-1-yl)-5-[4-(N-cyclopentylcarbamoyl)phenyl]thieno[2,3-c]pyridine dihydrochloride], the Ki came out at 45.4 nM in assay [1] and 22.2 nM in assay [2].
The matching figures for `CCN1CCN(c2nc(-c3ccc4c(c3)CC(C)(CO)O4)cc3ccsc23)CC1` (stereo not drawn) [Example 456, dihydrochloride]: 16.2 nM and 63.3 nM.
For `CCN1CCN(c2nc(-c3ccc(C(O)C4CCCCC4)cc3)cc3ccsc23)CC1` (stereo not drawn) [Example 457, 7-(4-Ethylpiperazin-1-yl)-5-[4-(cyclohexylhydroxymethyl)phenyl]thieno[2,3-c]pyridine dihydrochloride], the Ki in assay [1] was found to be 281 nM; in assay [2] it was 63.3 nM.
As to `CCN1CCN(c2nc(-c3ccc(C(O)C4CCCC4)cc3)cc3ccsc23)CC1` (stereo not drawn) [Example 458, 7-(4-ethylpiperazin-1-yl)-5-[4-(cyclopentylhydroxymethyl)phenyl]thieno[2,3-c]pyridine dihydrochloride], the Ki in assay [1] stood at 93.1 nM; in assay [2], 75.4 nM.
For `CCN1CCN(c2nc(-c3ccc(OC)cc3)cc3ccsc23)CC1` [Example 459, 7-(4-ethylpiperazin-1-yl)-5-(4-methoxyphenyl)thieno[2,3-c]pyridine dihydrochloride], the Ki in assay [1] came to 60.1 nM; in assay [2], 108 nM.
The matching figures for `CCN1CCN(c2nc(-c3ccc(OCC4OCCO4)cc3)cc3sccc23)CC1` [Example 460, 4-(4-ethylpiperazin-1-yl)-6-[4-(1,3-dioxolan-2-yl)methoxyphenyl]thieno[3,2-c]pyridine oxalate]: 175 nM and 5.32 nM.
Turning to `CCN1CCN(c2nc(-c3ccc(OCCCO)cc3)cc3sccc23)CC1` [Example 462, 4-(4-ethylpiperazin-1-yl)-6-[4-(3-hydroxypropoxy)phenyl]thieno[3,2-c]pyridine dihydrochloride], the values for the Ki in assay [1] and in assay [2] were 2.84 nM and 4.83 nM, respectively.
Consider `CCN1CCN(c2nc(-c3ccc(C#CCO)cc3)cc3sccc23)CC1` [Example 464, 4-(4-ethylpiperazin-1-yl)-6-[4-(3-hydroxy-1-propynyl)phenyl]thieno[3,2-c]pyridine pyridine], for which the results for the Ki in assay [1] and in assay [2] were 1.4 nM and 47.8 nM, respectively.
Taken in the same sequence, the figures for `CCN1CCN(c2nc(-c3ccc(CCCO)cc3)cc3sccc23)CC1` [Example 465, 4-(4-ethylpiperazin-1-yl)-6-[4-(3-hydroxypropy)phenyl]thieno[3,2-c]pyridine dihydrochloride] were 7.11 nM and 6.28 nM.
On to `CCN1CCN(c2nc(-c3ccc(C#CC(C)(C)O)cc3)cc3sccc23)CC1` [Example 466, 4-(4-ethylpiperazin-1-yl)-6-[4-(3-hydroxy-3-methyl-1-butynyl)phenyl]thieno[3,2-c]pyridine oxalate], for which the Ki in assay [1] amounted to 1 nM; in assay [2] it was 49.8 nM.
